Measurements: patent publication US6489137B2, “Detection of loss of the wild-type huBUB1 gene” (Chiron Corporation, priority 1997, dated 2002)

Molecular target: T1, huBUB1 kinase (Homo sapiens, UniProt O43683)
T1 construct: Plasmid p385-1, encoding full-length huBUB1 in the vector pCR3.1 (Invitrogen), was employed as a backbone for further constructs; made in house; host or cells: cell-free coupled in vitro transcription/translation (T7 TnT kit, Promega) from pCR3.1 plasmids, anti-FLAG immunopurified
Assay: in vitro huBUB1 kinase (autophosphorylation) assay
Assay type: biochemical
Conditions: for relative huBUB1 autophosphorylation: immunopurified FLAG-BUB3/BUB1, labeled-ATP kinase reaction, SDS-PAGE, phosphorimager; for inhibition of huBUB1 kinase (result in words): tested at 5, 10 and 20 μM
Text: A set of known compounds was screened using an in vitro huBUB1 kinase assay. Tested compounds included olomucine, myrecetin, hypericin, iodotubercidin, ellagic acid, emodin, and staurosporine. The relative specificity of these compounds towards known kinases has been reported in the literature. Some of these compounds can be classified as relatively specific kinase inhibitors (e.g., olomucine, myrecetin, ellagic acid), while other inhibitors are known to inhibit a broad range of kinase (e.g., hypericin, iodotubercidin, staurosporine).
Unlabeled FLAG-BUB3/BUB1 in vitro translation products were immunopurified with anti-FLAG. […] kinase reactions were performed in the presence and absence of inhibitors in 20 μl reaction volumes. Labeled reaction products were separated on SDS-PAGE gels, and relative huBUB1 autophosphorylation was determined with the aid of a phosphorimager. An initial screen was conducted using 10 and 20 μM of each compound. Compounds with a positive result in this screen were then retested at 5, 10 and 20 μM (Table 1).

T1 sequence (O43683 whole entry): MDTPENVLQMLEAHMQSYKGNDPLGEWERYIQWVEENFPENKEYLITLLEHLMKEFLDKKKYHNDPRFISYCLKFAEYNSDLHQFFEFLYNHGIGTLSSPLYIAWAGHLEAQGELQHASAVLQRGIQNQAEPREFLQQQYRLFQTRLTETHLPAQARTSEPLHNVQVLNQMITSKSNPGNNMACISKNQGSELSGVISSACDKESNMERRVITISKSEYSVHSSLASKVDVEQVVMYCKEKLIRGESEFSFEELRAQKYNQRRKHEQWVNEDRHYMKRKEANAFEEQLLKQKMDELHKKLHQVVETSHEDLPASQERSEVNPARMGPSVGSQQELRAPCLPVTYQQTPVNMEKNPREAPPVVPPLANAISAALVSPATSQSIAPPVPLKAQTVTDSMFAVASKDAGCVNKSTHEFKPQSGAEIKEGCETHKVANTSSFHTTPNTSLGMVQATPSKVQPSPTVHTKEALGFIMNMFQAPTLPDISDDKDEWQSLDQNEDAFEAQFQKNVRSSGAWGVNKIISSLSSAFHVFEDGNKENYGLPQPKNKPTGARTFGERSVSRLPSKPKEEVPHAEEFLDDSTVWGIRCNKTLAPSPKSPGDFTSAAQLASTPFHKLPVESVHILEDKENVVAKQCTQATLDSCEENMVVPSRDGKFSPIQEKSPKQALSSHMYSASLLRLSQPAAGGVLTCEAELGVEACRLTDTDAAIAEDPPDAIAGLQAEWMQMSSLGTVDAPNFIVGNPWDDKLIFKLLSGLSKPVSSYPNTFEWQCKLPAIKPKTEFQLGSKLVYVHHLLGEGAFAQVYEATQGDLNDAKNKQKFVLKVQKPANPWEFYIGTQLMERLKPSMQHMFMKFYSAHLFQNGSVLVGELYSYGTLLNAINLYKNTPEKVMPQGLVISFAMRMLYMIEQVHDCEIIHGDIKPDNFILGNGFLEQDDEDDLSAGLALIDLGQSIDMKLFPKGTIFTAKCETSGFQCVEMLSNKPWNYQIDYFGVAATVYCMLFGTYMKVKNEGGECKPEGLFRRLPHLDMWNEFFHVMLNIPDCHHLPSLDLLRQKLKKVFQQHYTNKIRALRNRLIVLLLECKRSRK
T1 sequence (O43684 whole entry partner): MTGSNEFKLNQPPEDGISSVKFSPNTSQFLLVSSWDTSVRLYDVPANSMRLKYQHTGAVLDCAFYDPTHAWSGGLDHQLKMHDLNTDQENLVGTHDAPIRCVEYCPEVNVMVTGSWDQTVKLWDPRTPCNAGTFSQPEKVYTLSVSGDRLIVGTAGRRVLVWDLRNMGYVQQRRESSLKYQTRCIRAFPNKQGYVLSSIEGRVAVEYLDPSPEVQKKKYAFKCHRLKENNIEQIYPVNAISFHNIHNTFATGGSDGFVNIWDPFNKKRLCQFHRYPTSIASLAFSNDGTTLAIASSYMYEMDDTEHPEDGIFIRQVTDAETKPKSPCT

Compound | relative huBUB1 autophosphorylation (5 μM compound) | relative huBUB1 autophosphorylation (10 μM compound) | relative huBUB1 autophosphorylation (20 μM compound) | inhibition of huBUB1 kinase (result in words)
Cc1cc(O)c2c(=O)c3c(O)cc(O)c4c5c(O)cc(O)c6c(=O)c7c(O)cc(C)c8c1c2c(c34)c(c78)c65 [hypericin] | 0.63 +/− 0.07 | 0.47 +/− 0.13 | 0.36 +/− 0.05 | –
Nc1ncnc2c1c(I)cn2[C@@H]1O[C@H](CO)[C@@H](O)[C@H]1O [iodotubercidin] | 0.56 +/− 0.08 | 0.41 +/− 0.09 | 0.32 +/− 0.05 | clearly inhibited
CN[C@@H]1C[C@H]2O[C@@](C)([C@@H]1OC)n1c3ccccc3c3c4c(c5c6ccccc6n2c5c31)C(=O)NC4 [staurosporine] | 0.45 +/− 0.11 | 0.49 +/− 0.11 | 0.26 +/− 0.04 | clearly inhibited
